From publication PMC11562494 (BMC Chemistry, 2024)
≈ marks a conversion by molar mass, not a printed value. Where “and” joins values, the source holds several entries; their conditions need not be identical. Identical values can stand only once. Like-named read-outs stand apart in the source and are kept apart here.

Tests used:
[1] = tested on: B. pumilus; experiment: Broth dilution MIC/MBC; format: cell-based, Bacillus pumilus; settings: for MBC / MIC: Bacillus pumilus; for MBC: read-out: MBC B. pumilus; for MIC: read-out: MIC B. pumilus
[2] = tested on: C. albicans; experiment: Broth dilution MIC/MFC; format: cell-based, Candida albicans; settings: for MFC / MIC: Candida albicans; for MFC: read-out: MFC C. albicans; for MIC: read-out: MIC C. albicans, broth dilution; for MIC C. albicans: broth dilution
[3] = tested on: E. cloacae; experiment: Broth dilution MIC/MBC; format: cell-based, Enterobacter cloacae; settings: for MBC / MIC: Enterobacter cloacae; for MBC: read-out: MBC E. cloacae; for MIC: read-out: MIC E. cloacae
[4] = tested on: S. cerevisiae; experiment: Broth dilution MIC/MFC; format: cell-based, Saccharomyces cerevisiae; settings: for MFC / MIC: Saccharomyces cerevisiae; for MFC: read-out: MFC S. cerevisiae; for MIC: read-out: MIC S. cerevisiae
[5] = tested on: S. faecalis; experiment: Broth dilution MIC/MBC; format: cell-based, Streptococcus faecalis; settings: for MBC / MIC: Enterococcus faecalis; for MBC: read-out: MBC S. faecalis; for MIC: read-out: MIC S. faecalis
[6] = tested on: E. coli; experiment: Broth dilution MIC/MBC; format: cell-based, Escherichia coli; settings: for MBC / MIC: Escherichia coli; for MBC: read-out: MBC E. coli; for MIC: read-out: MIC E. coli
[7] = tested on: WI38 cells; experiment: In vitro cytotoxicity MTT assay; settings: Homo sapiens, WI-38, 48 h, read-out: WI-38 IC50 ± SD
[8] = tested on: E. coli; experiment: Time-kill kinetic test; format: cell-based; settings: 1x MIC
[9] = target: DNA gyrase A (Escherichia coli, UniProt P0AES4); experiment: DNA gyrase supercoiling assay; format: biochemical; settings: IC50 ± SD DNA gyrase A, E. coli DNA gyrase supercoiling
Sequence of DNA gyrase A (P0AES4 whole entry): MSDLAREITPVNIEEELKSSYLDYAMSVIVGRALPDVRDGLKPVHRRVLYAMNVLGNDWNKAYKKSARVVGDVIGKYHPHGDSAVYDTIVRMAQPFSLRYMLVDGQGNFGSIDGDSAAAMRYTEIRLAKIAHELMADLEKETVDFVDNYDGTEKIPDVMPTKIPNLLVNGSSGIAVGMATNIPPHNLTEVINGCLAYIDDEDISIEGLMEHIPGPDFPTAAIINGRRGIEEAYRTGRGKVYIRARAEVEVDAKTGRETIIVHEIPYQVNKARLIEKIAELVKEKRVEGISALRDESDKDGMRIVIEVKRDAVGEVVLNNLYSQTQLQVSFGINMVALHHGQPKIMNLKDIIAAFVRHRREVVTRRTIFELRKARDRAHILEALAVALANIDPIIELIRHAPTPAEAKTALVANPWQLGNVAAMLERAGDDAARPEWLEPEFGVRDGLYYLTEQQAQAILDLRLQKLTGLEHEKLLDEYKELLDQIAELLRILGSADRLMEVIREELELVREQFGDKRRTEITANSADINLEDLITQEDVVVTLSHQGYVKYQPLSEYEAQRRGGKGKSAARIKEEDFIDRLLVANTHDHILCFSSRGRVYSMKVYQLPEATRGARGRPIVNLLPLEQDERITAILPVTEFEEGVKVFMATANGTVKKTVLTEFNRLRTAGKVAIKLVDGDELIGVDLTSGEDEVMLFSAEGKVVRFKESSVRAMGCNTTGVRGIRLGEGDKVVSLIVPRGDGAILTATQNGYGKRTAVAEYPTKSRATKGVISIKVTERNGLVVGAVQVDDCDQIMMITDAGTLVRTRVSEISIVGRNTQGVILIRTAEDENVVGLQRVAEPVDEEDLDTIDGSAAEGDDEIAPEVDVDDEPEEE

[10] = tested on: C. albicans; settings: cited from earlier work
[11] = tested on: Aspergillus fumigatus; settings: cited from earlier work
[12] = tested on: B. subtilis; settings: cited from earlier work
[13] = tested on: S. aureus; settings: cited from earlier work
[14] = tested on: Escherichia coli; settings: cited from earlier work
[15] = tested on: methicillin-resistant S. aureus; settings: cited from earlier work

Compound | MBC/ MIC ratio B. pumilus [1] | MBC [1] | MIC [1] | MFC/ MIC ratio C. albicans [2] | MFC [2] | MBC/ MIC ratio E. cloacae [3] | MBC [3] | MIC [3] | MFC/ MIC ratio S. cerevisiae [4] | MFC [4] | MIC [4] | MBC/ MIC ratio S. faecalis [5] | MBC [5] | MIC [5] | MBC/ MIC ratio E. coli [6] | MBC [6] | MIC [6] | MIC [2] | further results
Cc1c(C(N)=O)c(N)n(N)c(=O)c1C#N [Compound 3a, 1,2-diamino-5-cyano-4-methyl-6-oxo-1,6-dihydropyridine-3-carboxamide] | 4 | 125 µg/mL (≈ 603 µM) | 31.3 µg/mL (≈ 151 µM) | 4 | 500 µg/mL (≈ 2410 µM) | 8 | 31.3 µg/mL (≈ 151 µM) | 3.91 µg/mL (≈ 18.9 µM) | 4 | 125 µg/mL (≈ 603 µM) | 31.3 µg/mL (≈ 151 µM) | 4 | 31.3 µg/mL (≈ 151 µM) | 7.81 µg/mL (≈ 37.7 µM) | 4 | 62.5 µg/mL (≈ 302 µM) | 15.6 µg/mL (≈ 75.3 µM) |  | 
N#Cc1c(-c2ccc(Cl)cc2Cl)c(C(N)=O)c(N)n(N)c1=O [Compound 3b, 1,2-diamino-5-cyano-4-(2,4-dichlorophenyl)-6-oxo-1,6-dihydropyridine-3-carboxamide] | 2 | 31.3 µg/mL (≈ 92.6 µM) | 15.6 µg/mL (≈ 46.1 µM) | 2 | 125 µg/mL (≈ 370 µM) | 4 | 125 µg/mL (≈ 370 µM) | 31.3 µg/mL (≈ 92.6 µM) | 2 | 250 µg/mL (≈ 739 µM) | 125 µg/mL (≈ 370 µM) | 2 | 62.5 µg/mL (≈ 185 µM) | 31.3 µg/mL (≈ 92.6 µM) | 4 | 31.3 µg/mL (≈ 92.6 µM) | 7.81 µg/mL (≈ 23.1 µM) | 62.5 µg/mL (≈ 185 µM) | 
CN(C)c1ccc(-c2c(C(N)=O)c(N)n(N)c(=O)c2C#N)cc1 [Compound 3c, 1,2-diamino-5-cyano-4-(4-(dimethylamino)phenyl)-6-oxo-1,6-dihydropyridine-3-carboxamide] | 4 | 62.5 µg/mL (≈ 200 µM) | 15.6 µg/mL (≈ 49.9 µM) | 2 | 125 µg/mL (≈ 400 µM) | 2 | 125 µg/mL (≈ 400 µM) | 62.5 µg/mL (≈ 200 µM) | 4 | 125 µg/mL (≈ 400 µM) | 31.3 µg/mL (≈ 100 µM) | 2 | 125 µg/mL (≈ 400 µM) | 62.5 µg/mL (≈ 200 µM) | 4 | 62.5 µg/mL (≈ 200 µM) | 15.6 µg/mL (≈ 49.9 µM) | 31.3 µg/mL (≈ 100 µM) | MIC C. albicans [2]: 62.5 µg/mL (≈ 200 µM)
N#Cc1c(-c2ccc(OCc3ccccc3)cc2)c(C(N)=O)c(N)n(N)c1=O [Compound 3d, 1,2-diamino-4-(4-(benzyloxy)phenyl)-5-cyano-6-oxo-1,6-dihydropyridine-3-carboxamide] | 4 | 62.5 µg/mL (≈ 166 µM) | 15.6 µg/mL (≈ 41.6 µM) | 4 | 500 µg/mL (≈ 1330 µM) | 4 | 31.3 µg/mL (≈ 83.4 µM) | 7.81 µg/mL (≈ 20.8 µM) | 2 | 62.5 µg/mL (≈ 166 µM) | 31.3 µg/mL (≈ 83.4 µM) | 4 | 62.5 µg/mL (≈ 166 µM) | 15.6 µg/mL (≈ 41.6 µM) | 4 | 15.6 µg/mL (≈ 41.6 µM) | 3.91 µg/mL (≈ 10.4 µM) |  | IC50 [7]: 48.8 ± 2.07 µM; Time to bactericidal activity against E. coli [8]: 90 to 120 min and 90 min; IC50 [9]: 4.48 µM and 4.49 µM
CC(=O)Oc1ccc(-c2c(C(N)=O)c(N)n(N)c(=O)c2C#N)cc1 [Compound 3e, 4-(1,6-diamino-5-carbamoyl-3-cyano-2-oxo-1,2-dihydropyridin-4-yl)phenyl acetate] | 2 | 125 µg/mL | 62.5 µg/mL | 2 | 125 µg/mL | 4 | 62.5 µg/mL | 15.6 µg/mL | 2 | 125 µg/mL | 62.5 µg/mL | 2 | 62.5 µg/mL | 31.3 µg/mL | 4 | 15.6 µg/mL | 3.91 µg/mL | 62.5 µg/mL | IC50 [7]: 43.2 ± 1.7 µM; Time to bactericidal activity against E. coli [8]: 90 to 120 min and 120 min; IC50 [9]: 11.5 µM
Cc1c(C(N)=S)c(N)n(N)c(=O)c1C#N [Compound 4a, 1,2-diamino-5-cyano-4-methyl-6-oxo-1,6-dihydropyridine-3-carbothioamide] | 2 | 125 µg/mL (≈ 560 µM) | 62.5 µg/mL (≈ 280 µM) |  | 62.5 µg/mL (≈ 280 µM) | 2 | 125 µg/mL (≈ 560 µM) | 62.5 µg/mL (≈ 280 µM) | 8 | 500 µg/mL (≈ 2240 µM) | 62.5 µg/mL (≈ 280 µM) | 4 | 62.5 µg/mL (≈ 280 µM) | 15.6 µg/mL (≈ 69.9 µM) | 2 | 31.3 µg/mL (≈ 140 µM) | 15.6 µg/mL (≈ 69.9 µM) | 31.3 µg/mL (≈ 140 µM) | 
N#Cc1c(-c2ccc(Cl)cc2Cl)c(C(N)=S)c(N)n(N)c1=O [Compound 4b, 1,2-diamino-5-cyano-4-(2,4-dichlorophenyl)-6-oxo-1,6-dihydropyridine-3-carbothioamide] | 2 | 62.5 µg/mL (≈ 176 µM) | 31.3 µg/mL (≈ 88.4 µM) |  | 62.5 µg/mL (≈ 176 µM) |  | 125 µg/mL (≈ 353 µM) | 31.3 µg/mL (≈ 88.4 µM) | 4 | 500 µg/mL (≈ 1410 µM) | 125 µg/mL (≈ 353 µM) |  | 125 µg/mL (≈ 353 µM) | 31.3 µg/mL (≈ 88.4 µM) |  | 62.5 µg/mL (≈ 176 µM) | 7.81 µg/mL (≈ 22 µM) | 31.3 µg/mL (≈ 88.4 µM) | 
CN(C)c1ccc(-c2c(C(N)=S)c(N)n(N)c(=O)c2C#N)cc1 [Compound 4c, 1,2-diamino-5-cyano-4-(4-(dimethylamino)phenyl)-6-oxo-1,6-dihydropyridine-3-carbothioamide] | 2 | 125 µg/mL (≈ 381 µM) | 62.5 µg/mL (≈ 190 µM) | 4 | 62.5 µg/mL (≈ 190 µM) | 4 | 250 µg/mL (≈ 761 µM) | 62.5 µg/mL (≈ 190 µM) | 2 | 125 µg/mL (≈ 381 µM) | 62.5 µg/mL (≈ 190 µM) | 4 | 31.3 µg/mL (≈ 95.3 µM) | 7.81 µg/mL (≈ 23.8 µM) | 4 | 125 µg/mL (≈ 381 µM) | 31.3 µg/mL (≈ 95.3 µM) | 15.6 µg/mL (≈ 47.5 µM) | 
N#Cc1c(-c2ccc(OCc3ccccc3)cc2)c(C(N)=S)c(N)n(N)c1=O [Compound 4d, 1,2-diamino-4-(4-(benzyloxy)phenyl)-5-cyano-6-oxo-1,6-dihydropyridine-3-carbothioamide] | 4 | 31.3 µg/mL (≈ 80 µM) | 7.81 µg/mL (≈ 20 µM) | 2 | 125 µg/mL (≈ 319 µM) | 2 | 125 µg/mL (≈ 319 µM) | 62.5 µg/mL (≈ 160 µM) | 2 | 62.5 µg/mL (≈ 160 µM) | 31.3 µg/mL (≈ 80 µM) | 2 | 62.5 µg/mL (≈ 160 µM) | 31.3 µg/mL (≈ 80 µM) | 4 | 31.3 µg/mL (≈ 80 µM) | 7.81 µg/mL (≈ 20 µM) | 31.3 µg/mL (≈ 80 µM) | MIC C. albicans [2]: 62.5 µg/mL (≈ 160 µM)
CC(=O)N1CCN(c2ccc(OCC3COC(Cn4ccnc4)(c4ccc(Cl)cc4Cl)O3)cc2)CC1 (stereo not shown) [Keto., Ketoconazole, reference compound] |  |  |  |  | 31.3 µg/mL (≈ 58.9 µM) |  |  |  |  | 15.6 µg/mL (≈ 29.4 µM) | 1.95 µg/mL (≈ 3.67 µM) |  |  |  |  |  |  | 1.95 µg/mL (≈ 3.67 µM) | 
CC1(C)S[C@@H]2[C@H](NC(=O)Cc3ccccc3)C(=O)N2[C@H]1C(=O)O [Pen. G, Penicillin G, reference compound] | 2 | 125 µg/mL (≈ 374 µM) | 62.5 µg/mL (≈ 187 µM) |  |  |  |  |  |  |  |  | 2 | 62.5 µg/mL (≈ 187 µM) | 31.5 µg/mL (≈ 94.2 µM) |  |  |  |  | 
C[C@@H]1[C@H](O)[C@@H](C)/C=C/C=C/C=C/C=C/C=C/C=C/C=C/[C@H](O[C@@H]2O[C@H](C)[C@@H](O)[C@H](N)[C@@H]2O)C[C@@H]2O[C@](O)(C[C@@H](O)C[C@@H](O)[C@H](O)CC[C@@H](O)C[C@@H](O)CC(=O)O[C@H]1C)C[C@H](O)[C@H]2C(=O)O [amphotericin B] |  |  |  |  |  |  |  |  |  |  |  |  |  |  |  |  |  |  | MIC C. albicans [10]: 1.95 µg/mL (≈ 2.11 µM); MIC Aspergillus fumigatus [11]: 1.95 µg/mL (≈ 2.11 µM)
N[C@@H](C(=O)N[C@@H]1C(=O)N2C(C(=O)O)=C(Cl)CS[C@H]12)c1ccccc1 [cefaclor] |  |  |  |  |  |  |  |  |  |  |  |  |  |  |  |  |  |  | MIC B. subtilis [12]: 2.4 µg/mL (≈ 6.53 µM); MIC S. aureus [13]: 2.4 µg/mL (≈ 6.53 µM)
C[C@@H]1[C@H](O)[C@@H](C)/C=C/C=C/CC/C=C/C=C/C=C/C=C/C(O[C@H]2O[C@H](C)[C@@H](O)[C@H](N)[C@@H]2O)CC2O[C@](O)(CC(O)C(O)CCC(O)CC(O)CC(O)CC(=O)O[C@H]1C)CC(O)C2C(=O)O (stereo partly shown) [nystatin] |  |  |  |  |  |  |  |  |  |  |  |  |  |  |  |  |  |  | MIC C. albicans [10]: 1.95 µg/mL (≈ 2.11 µM)
CC1COc2c(N3CCN(C)CC3)c(F)cc3c(=O)c(C(=O)O)cn1c23 (stereo not shown) [ofloxacin] |  |  |  |  |  |  |  |  |  |  |  |  |  |  |  |  |  |  | IZ E. coli [14]: 24 mm
CN[C@H](CC(C)C)C(=O)N[C@H]1C(=O)N[C@@H](CC(N)=O)C(=O)N[C@H]2C(=O)N[C@H]3C(=O)N[C@H](C(=O)N[C@H](C(=O)O)c4cc(O)cc(O)c4-c4cc3ccc4O)[C@H](O)c3ccc(c(Cl)c3)Oc3cc2cc(c3O[C@@H]2O[C@H](CO)[C@@H](O)[C@H](O)[C@H]2O[C@H]2C[C@](C)(N)[C@H](O)[C@H](C)O2)Oc2ccc(cc2Cl)[C@H]1O [vancomycin] |  |  |  |  |  |  |  |  |  |  |  |  |  |  |  |  |  |  | MIC methicillin-resistant S. aureus [15]: 1 µg/mL (≈ 0.69 µM)
gentamycin [reference compound] |  |  |  |  |  |  |  |  |  |  |  |  |  |  |  |  |  |  | Time to bactericidal activity against E. coli [8]: 90 to 120 min and 120 min
